Assay results: US20260027179A1, “ANTI-SYNUCLEINOPATHY PEPTIDE AND METHODS TO TREAT NEURODEGENERATIVE DISEASES” (University of British Columbia, priority 2021, published 2026)
Peptide text beside a SMILES is read from it. * marks the point of attachment. Cbz = O=C(OCc1ccccc1)*

Legend:
endogenous α-synuclein = target: T1, endogenous α-synuclein (Rattus norvegicus, UniProt P37377); test: Knockdown of endogenous α-synuclein in primary cortical neuron cultures, immunoblot; type: cell-based
T1 construct: endogenous in cells; host or cells: primary rat cortical neurons (14 DIV) and primary rat ventral midbrain neurons (3 DIV)
Protocol: Primary rat neuron cultures were prepared from embryos of pregnant Sprague-Dawley rats (E18). The experimental protocol was approved by the University of British Columbia Animal Care Committee. Briefly, the cortical tissue or ventral midbrain tissue was isolated into ice cold HBSS (Invitrogen, 14170-112) and then digested with 0.25% trypsin-EDTA at 37° C. for 30 min. After washing with warm DMEM (supplemented with 10% FBS) three times, neurons were suspended in neuron culture media and dissociated by trituration using varying sizes of pipettes. Neurons were then centrifuged, and the pellet was re-suspended in culture media, washed twice with culture media, and plated on the poly-D-lysine-coated plates. Neuron culture was maintained in the 37° C. incubator with […] and 5% CO2. The morning after culturing, 2/3 of the neuron culture media was replaced with fresh neuron culture media. Media was then replaced every 3-4 days. Primary rat cortical neuron culture was used 14 days in vitro (DIV) and primary rat ventral midbrain neuron culture was used 3 DIV.
Tat-βsyn-degron and Tat-βsyn peptides were first dissolved in sterile water as a 25 mM stock solution and then diluted directly in the neurobasal culture media to make the desired working concentration. 20 mM MPP+iodide stock solution was made freshly each time and diluted in the neurobasal culture media directly to make the desired working concentration. For 48 hrs treatment, neuron culture media containing MPP+ and peptides were replaced every 24 hrs.
(§1) Brain tissues or cultured cells were lysed on ice in the lysis buffer and then the solution was centrifuged at 14,000 rpm for 10 min at 4° C. Next, the supernatant was collected and protein concentrations were determined using a BCA protein assay kit (Thermo Scientific, 23227). Equal amount of protein samples was mixed with 4× sample buffer, boiled at 100° C. for 5 min, and separated on 10% sodium dodecyl sulphate-polyacrylamide gel electrophoresis (SDS-PAGE). Proteins were then transferred to Immobilon-PTM polyvinylidene fluoride (PVDF) membranes (Bio-Rad, 162-0177). The membranes were blocked with 5% non-fat milk in Tris-buffered saline containing 0.1% Tween-20 (TBST) for 1 hr at room temperature, and then incubated overnight at 4° C. with primary antibody. After washing 3×5 min in TBST, membranes were incubated with horseradish peroxidase-conjugated secondary antibody for 1 hr at room temperature. After another three washes with TBST, protein was visualized in the Bio-Rad Imager using ECL western blotting substrate (Pierce, 32016). The band density of each protein was quantified by the Bio-Rad Quantity One software and the relative optical density was analyzed relative to the loading control β-actin on the same membrane.

[1] = target: T2, purified recombinant human α-synuclein (Homo sapiens, UniProt P37840); test: Biacore peptide-protein binding assay; conditions: 0.20-12.50 μM peptide, report point 20 seconds into dissociation
T2 construct: His (histidine tag) (N); purchased Sigma S7820-500UG
Protocol: Biacore experiments were performed using a Biacore 3000 instrument (GE Healthcare Biosciences, Upsala, Sweden) and HBS running buffer, pH 7.4, containing 10 mM HEPES, 150 mM NaCl, 3 mM EDTA, and 0.005% surfactant P20. A research-grade CM5 sensor chip was activated with a mixture containing equal molar amounts of EDC (N-ethyl-N′-(dimethylaminopropyl) carbodiide and NHS (N-hydroxysuccinimide). Purified recombinant human α-synuclein (N-terminal histidine tagged, Sigma, S7820-500UG), diluted in sodium acetate pH 3.1, was then injected and covalently coupled to a flow cell of the sensor chip surface by amide bonding. Residual unreacted sites were blocked with ethanolamine. A reference surface, to account for non-specific binding, was similarly generated by activating and blocking an adjacent flow cell. Approximately 1500 resonance units (RU), equivalent to a surface concentration of 1500 pg/mm^2 of α-synuclein, was immobilized.
To ascertain the binding interaction between α-synuclein knockdown peptides and α-synuclein, synthetic Tat-βsyn-degron peptide or control tat peptide was serially diluted and sequentially injected over the active surface containing immobilized α-synuclein and the reference surface for 3 minutes at a flow rate of 30 μl/minute. The peptides were then allowed to dissociate for 3 minutes during which time HBS running buffer was injected. The resultant sensorgrams were double-referenced by subtracting out the binding on the reference surface and the response from the HBS blank buffer control. Binding response report points were collected 20 seconds into the dissociation phase of the interaction at time 200 seconds, which represents a stable binding response and excludes bulk refractive index changes and nonspecific binding.

C57BL/6 mice = test: MPTP mouse model, rotarod test; type: in vivo; conditions: peptide 6 μmol/kg i.p. twice a day for 12 days, vs MPTP group
Protocol: (§2) C57BL/6 mice (20-25 g) received intraperitoneal (i.p.) injection of 30 mg/kg parkinsonian toxin MPTP hydrochloride once a day for 5 days to induce dopaminergic neuron death in the substantia nigra, while the control mice received equal volumes of saline injection. 6 μmol/kg Tat-βsyn-degron peptide or control Tat-βsyn peptide was i.p. injected into the MPTP-treated mice every 12 hrs from the first day of MPTP injection until 7 days after the last injection of MPTP. All groups of mice then underwent a rotarod test before they were sacrificed.
The rotarod test was performed as previously described (Heldermon, C. D. et al., PloS one 2, e772, doi:10.1371/journal.pone.0000772 (2007)), with modifications. Briefly, 6 days after the last MPTP injection, all mice received 4 rounds of training on the rotarod (Stoelting Co.). In the first two rounds of training, the rotarod was maintained at constant speed of 20 rpm for 3 min. In the second two rounds of training, the rotarod reversed rotation direction every 3 turns at the constant speed of 20 rpm for 3 min. […] Mice were tested 10 times at 20 min intervals, and the time that they remained on the rotarod during each test was recorded. […] The motor performance of the mouse was expressed as the latency to fall off the rotarod.

dopaminergic neurons = test: MPTP mouse model, dopaminergic neuronal damage (TH immunoblotting, TH immunohistochemistry); type: in vivo; conditions: peptide 6 μmol/kg i.p. twice a day for 12 days
Protocol: C57BL/6 mice were i.p. injected with 30 mg/kg parkinsonian toxin MPTP (or saline as control), once per day for 5 consecutive days, to induce dopaminergic neuron damage. The effects of MPTP administration on mouse rotarod performance and damage to dopaminergic neurons were then analyzed 1 week after the last injection of MPTP. To determine the effect of α-synuclein knockdown in protecting dopaminergic neurons against MPTP, the Tat-βsyn-degron peptide or its control Tat-βsyn (6 μmol/kg; i.p.) was used in some animals twice a day for 12 days, beginning the first day of MPTP injection. […] The striatum is a region that receives dopaminergic neuronal projections from the substantia nigra and is also deeply affected in PD. Consistent with the specific neurotoxic effects of MPTP on dopaminergic neurons, in mice receiving MPTP injection alone there was a significant loss of protein TH in both dopaminergic neurons in the substantia nigra-containing ventral midbrain (FIGS. 6a and 6c) and dopaminergic neuronal terminals in the striatum (FIGS. 6d and 6f). […] As expected, the specific knockdown of α-synuclein by Tat-βsyn-degron protected against MPTP-induced dopaminergic neuronal injury (FIGS. 6c and 6f).
as §2, §1
C57BL/6 mice were anesthetized with 1.5 g/kg urethane (Sigma, U2500) and then perfused with 0.9% saline and 4% paraformaldehyde. Brains were removed and fixed in 4% paraformaldehyde for 24 hrs before being transferred to 30% sucrose/PBS solution for cryoprotection. The brains were then sectioned into 30 μm slices using a Leica cryostat. After blocking and permeabilization using a PBS solution containing 1% BSA and 0.2% Triton X-100 for 30 min at room temperature, the brain slices were incubated with anti-TH antibody (1:800 dilution) for 3 days at 4° C. Finally, the TH-positive neurons in the substantia nigra and TH-positive neuronal terminals in the striatum were stained using the anti-mouse Ig HRP detection kit (BD Transduction Laboratories, 551011) according to manufacturer's instruction, and visualized under Zeiss Axio Observer D1 microscope. […]

CC(C)C[C@@H](C=O)NC(=O)[C@H](CC(C)C)NC(=O)[C@H](CC(C)C)NC(=O)OCc1ccccc1 [MG132, reference compound] (Cbz-Leu-Leu-Leu-aldehyde)
effect on Tat-βsyn-degron induced knockdown of α-synuclein (endogenous α-synuclein; 10 μM MG132 + 50 μM Tat-βsyn-degron, 24 hrs): prevented Tat-βsyn-degron induced knockdown of α-synuclein

YGRKKRRQRRR [Tat peptide, reference compound]
binding response to immobilized α-synuclein [1]: little binding

YGRKKRRQRRRGVLYVGSKTRRRRG [Tat-βsynN-degron]
binding response to immobilized α-synuclein [1]: robust and similar binding

YGRKKRRQRRRRTKSGVYLVG [Tat-βsyn, control peptide lacking the proteasomal targeting signal, reference compound]
MPTP-induced motor deficits (latency to fall off the rotarod) (C57BL/6 mice): significantly reduced
MPTP-induced dopaminergic neuronal damage (overall, FIG. 6 and FIG. 7a-d) (dopaminergic neurons): small, non-significant decrease
endogenous α-synuclein protein levels (endogenous α-synuclein; bath application 24 hrs, 5-50 μM (control 50 μM), cortical neuron cultures): had no effect
